Experimental data as given in PMC11585924, “Direct measurements of neurosteroid binding to specific sites on GABAA receptors” (British journal of pharmacology, 2024).
Entries after “also recorded” stand apart in the source; their conditions may differ.

Legend:
[1] = target: T1, ELIC-α1^W246LGABAAR (Homo sapiens, UniProt P14867, W273L); experiment: biochemical; format: binding
Method: ELIC-α1GABAAR was expressed and purified according to a previously published protocol ([Q. Chen et al., 2018]). The purified protein was aliquoted and stored at −80°C. Mutagenesis was performed as described in previous reports ([Kinde et al., 2016]) by oligonucleotide-directed mutagenesis using Phu polymerase (Thermo Fisher Scientific, Waltham, MA, USA) verified by sequencing. ELIC-α1GABAAR was expressed in OverExpress™ C43(D3) E. coli, derived from Rosetta™(DE3) cells under double selection with kanamycin and chloramphenicol for ELIC-α1GABAAR.
One hundred microlitres of purified ELIC-α1GABAAR (0.3 μM in Buffer A + 0.015% DDM) was transferred into a 50-μl window quartz cuvette (Starna Cells, Atascadero, CA, USA), which was placed in a cuvette holder maintained at 4°C. […] Two microlitres of NaI (AK Scientific, Union City, CA, USA; 5-M stock prepared in 0.1-Mm sodium hydrosulfite [Sigma-Aldrich, St. Louis, MO, USA]) was added to the protein (final concentration = 100 mM) and incubated for 10 min to reduce the fluorescence emission from hydrophilic tryptophans. To measure the concentration–dependent effects of NS on tryptophan fluorescence, 1 μl of NS from each 100× stock solution was sequentially added to the NaI-equilibrated protein and thoroughly mixed to achieve concentrations from 0.01 to 50 μM. […]

[2] = target: T2, ELIC-α1GABAAR (Homo sapiens, UniProt P14867); format: binding
T2 sequence (P14867 other isoform, or with tags, fused parts or gaps): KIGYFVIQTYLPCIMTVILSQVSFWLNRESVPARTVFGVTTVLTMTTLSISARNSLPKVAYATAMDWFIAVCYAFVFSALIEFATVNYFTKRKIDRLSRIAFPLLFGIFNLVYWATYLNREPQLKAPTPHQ
T2 sequence (P0C7B7 1-198, further chain): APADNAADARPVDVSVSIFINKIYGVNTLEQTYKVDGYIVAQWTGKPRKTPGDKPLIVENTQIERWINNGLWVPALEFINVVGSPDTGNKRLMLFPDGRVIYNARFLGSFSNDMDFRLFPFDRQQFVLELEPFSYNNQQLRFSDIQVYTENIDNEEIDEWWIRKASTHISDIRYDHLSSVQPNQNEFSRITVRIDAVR
Method: (§1) One hundred microlitres of ELIC-α1GABAAR (0.3 μM) was transferred into a 50-μl window quartz cuvette maintained at 4°C, and NaI was added to the protein sample to a final concentration of 100 mM and incubated for 10 min. MQ290 was then added at a concentration of 3 μM for 3α-OH NS inhibition curves or 1 μM for 3β-OH NS inhibition curves and incubated for 30 min. One-microlitre aliquots of 3α-OH and 3β-OH NS from their corresponding stock solutions (prepared in Buffer A + 0.015% DDM) were added to achieve concentrations between 0.01 and 30 μM. The background emission spectra of ligands alone were obtained for each ligand concentration in the absence of protein and were subtracted from the protein-ligand emission spectra to yield background subtracted data. The MQ290 FRET spectra for different ligand concentrations were estimated using the method described above. The 370-nm intensities of the FRET spectra were plotted against ligand concentration and fitted to a four-parameter logistic curve to obtain IC50 data (GraphPad Software version 9.4.0, San Diego, CA). Ki values were calculated using the relationship: Ki=IC50/1+LT/Kd
where LT is the concentration of MQ290 and Kd was determined from the MQ290 binding curve.

[3] = target: T1, ELIC-α1^W246LGABAAR; experiment: Inhibition of MQ290 FRET by NS in W246L receptors; format: binding; settings: 30 μM NS; MQ290 1 μM
Method: as §1

[4] = target: T2, ELIC-α1GABAAR; experiment: KK200 photolabelling competition, middle-down MS; format: binding; settings: 3 μM KK200, 30 μM competitor
Method: The synthesis of the NS photolabelling reagent KK200 is detailed in previous reports ([W. W. L. Cheng et al., 2018]; [Jiang et al., 2016]). […] The samples were then irradiated in a quartz cuvette for 5 min, using a photoreactor emitting light at >320 nm ([Germann et al., 2021]). Sample preparation for tryptic digestion and analysis by LC–MS was performed as previously described ([Sugasawa et al., 2019]). Peptides were separated on a home-packed PLRP-S (Agilent, Santa Clara, CA, USA) column (10 cm × 75 μm, 300 Å) using a 135-min gradient from 10% to 90% acetonitrile and introduced to an Orbitrap-Elite mass spectrometer (Thermo Fisher Scientific, Waltham, MA, USA; RRID:SCR_020548) at 800 nl·min^−1 with a nanospray source. MS acquisition was set as an MS1 Orbitrap scan (resolution of 60,000) followed by top 20 MS2 Orbitrap scans (resolution of 15,000) using data-dependent acquisition and exclusion of singly charged precursors. Fragmentation was performed using high-energy dissociation with normalized energy of 35%. Analysis of data sets was performed using Xcalibur (Thermo Fisher Scientific, Waltham, MA, USA; RRID: SCR_014593) to manually search for TM1, TM2, TM3 or TM4 tryptic peptides with or without NS photolabelling modifications. Photolabelling efficiency was estimated by generating extracted chromatograms of unlabelled and labelled peptides, determining the area under the curve, and calculating the (area of labelled peptide/(area of unlabelled + area of labelled peptide). MS2 spectra of photolabelled TMD peptides were analysed by manual assignment of fragment ions with and without photolabelling modification.

[5] = target: α1β3 GABAA receptors; parameters: method as in Tateiwa et al., 2023; settings: ref Tateiwa et al., 2023; read-out: apparent Kd; cited from earlier work

T1 sequence (P14867 other isoform, or with tags, fused parts or gaps W273L): as the sequence (P14867 other isoform, or with tags, fused parts or gaps) above, with W25L counted along it
T1 sequence (P0C7B7 1-198, further chain): as the sequence (P0C7B7 1-198, further chain) above

With CC(=O)[C@H]1CC[C@H]2[C@@H]3CC[C@H]4C[C@H](O)CC[C@]4(C)[C@H]3CC[C@]12C [AlloP, allopregnanolone] the IC50 [1] was 500 ± 210 nM, the Hill slope ([2]; 3α-OH NS, MQ290 3 μM) was −1.89 ± 0.26 and the “mechanism of inhibition of MQ290 binding” value ([2]; MQ290 binding curves with 3×Kd and 30 μM NS) was “competitive interaction”. For the same molecule, the “inhibition of remaining MQ290 FRET signal in W246L” value [3] was “reduced by neither”, the “prevention of KK200 photolabelling of TM3 (Y309)” value [4] was “significantly different than control; also recorded: prevented” and the Kd [5] was 100 ± 50 nM.
